Test results as given in patent US12274775B2, “Fatty acid esters as anti-Malassezia agents” (SYMRISE AG, priority 2019, dated 2025).
Converted amounts (≈) assume the structure as drawn. Where two headings read alike, the source gives them in different places.

Experiments:
M. furfur = test: Agar dilution test on mDixon agar, minimal inhibitory concentration (MIC); type: cell-based; details: Malassezia furfur, agar dilution, pH 5.5, 32° C., up to 14 days, read-out: Minimal inhibitory concentration (MIC)
Description: (§1) The fatty acid esters and their mixtures were tested for growth inhibition against Malassezia. The following reference strains were included:
(§2) Tests were performed on solid media using agar dilution tests. Stock solutions of test substances were prepared in mDixon-Agar (cf. Table 2). Lower test concentrations were obtained by diluting stock solutions with fresh agar.
(§3) Preparation of liquid agar was carried out in temperated water bath. Required amounts of test substances were weighed in 130 ml of Dixon Agar and mixed with fresh Dixon-Agar to reach desired concentrations of test substances. Agar solutions with test substances were then poured into 24 well-plates. The pH value in all assays was maintained at 5.5. Preparation of test substances was done on weight per volume base. All results are expressed in parts per million (1 ppm=0.0001%).
(§4) Briefly, Malassezia strains were cultivated on selective agar for pathogenic fungi (Merck) and overlaid with a thin layer of cold-sterilized olive oil. […] Incubation was carried out at 32° C. over a maximal duration of 14 days with regular inspection and documentation of growth status. Minimal inhibitory concentrations (MICs) were determined as the lowest concentrations of test compound without visible growth. Each experiment was repeated to confirm results.

M. globosa = test: as above; type: cell-based; details: Malassezia globosa, agar dilution, pH 5.5, 32° C., up to 14 days, read-out: Minimal inhibitory concentration (MIC)
Description: as §1, §2, §3, §4

M. pachydermatis = test: as above; type: cell-based; details: Malassezia pachydermatis, agar dilution, pH 5.5, 32° C., up to 14 days, read-out: Minimal inhibitory concentration (MIC)
Description: as §1, §2, §3, §4

M. restricta = test: as above; type: cell-based; details: 336 h; M. restricta CBS 7877; agar dilution, pH 5.5, 32° C., up to 14 days; read-out: Minimal inhibitory concentration (MIC)
Description: as §1, §2, §3, §4

M. sympodialis = test: as above; type: cell-based; details: 336 h, up to 14 days, read-out: Minimal inhibitory concentration (MIC)
Description: as §1, §2, §3, §4

M. globosa CBS 7705 = test: Ester cleavage by Malassezia cells, GC quantification; type: cell-based; details: 32° C.
Description: (§5) These two species are the most frequently detected ones on human scalp and skin and their hydrolytic/lipolytic activities on fatty acid esters has not yet been investigated before.
(§6) Malassezia strains were cultivated on selective agar for pathogenic fungi (Merck) and overlaid with a thin layer of cold-sterilized olive oil. After 3 to 5 days, fungal cells were harvested and resuspended in the respective test substance. Cell numbers were determined using a Neubauer counting chamber (cf. Table 12). Sterile Petri dishes (diameter: 3 cm) were prepared containing selective agar for pathogenic fungi, overlaid with 100 μl of the test suspensions and incubated at 32° C.
(§7) After defined incubation times (0, 3, 6, 12, 24, 48, and 72 h), test suspensions were removed from the agar surface by rinsing with 1 ml chloroform and stored under cool conditions in gastight tubes until analysis. Chloroform was removed by evaporation at 30° C. in the fume hood and the remaining liquid mixed with 1 ml isopropanol, transferred in Eppendorf tubes and centrifuged. The supernatant was transferred to new Eppendorf tubes.
(§8) In order to analytically quantify esters and free fatty acid resulting from cleavage by Malassezia enzymes, gas chromatography was used.
(§9) For quantification (range 0.1-10 wt %) a multilevel calibration method with internal standard (ISTD, docosane [C22]; 500 mg in MtBE) was used. An equal amount of corresponding acid, ester and possible side products [0.2-50 mg/10 mL] were mixed with ISTD, diluted to an appropriate concentration and 1 μL [split1:50] was directly used for GC-analysis with the following conditions: GC Agilent 6890 with a 20 m ZB-Wax column [0.20 mm×0.20 μm], injector temperature of 250° C., detector temperature of 275° C., flow gas of 1.3 mL/min hydrogen [constant]. For temperature profile 60° C. to 240° C. with a heating rate of 9° C./min was used.

M. restricta CBS 7877 = test: as above; type: cell-based; details: 32° C.
Description: as §5, §6, §7, §8, §9

[1] = Ester cleavage assays without Malassezia cells; type: physicochemical; details: until the end of the experiment after 72 hours
Description: as §6, §7, §8
For quantification (range 0.1-10 wt %) a multilevel calibration method with internal standard (ISTD, docosane [C22]; 500 mg in MtBE) was used. […]

[2] = CBS1878, 336 h, M. furfur CBS 1878
[3] = CBS7019, 336 h, M. furfur CBS 7019
[4] = CBS7705, 336 h, M. globosa CBS 7705
[5] = CBS7966, 336 h, M. globosa CBS 7966
[6] = CBS1879, 336 h, M. pachydermatis CBS 1879
[7] = pH 5.5, M. sympodialis ATCC 42132, pH 5.5, 32° C.
[8] = pH 5.5, M. sympodialis CBS 7222, pH 5.5, 32° C.
[9] = pH 5.5, M. sympodialis CBS 7979, pH 5.5, 32° C.
[10] = pH 5.5, M. sympodialis DSM 6171, pH 5.5, 32° C.
[11] = M. globosa CBS 7705, after 6 hours
[12] = M. globosa CBS 7705, after 12 hours
[13] = M. restricta CBS 7877, after 6 hours
[14] = M. restricta CBS 7877, after 12 hours

| Compound | MIC (M. furfur; [2]) [µg/mL] | MIC (M. furfur; [3]) [µg/mL] | MIC (M. globosa; 336 h, M. globosa PM1) [µg/mL] | MIC (M. globosa; [4]) [µg/mL] | MIC (M. globosa; [5]) [µg/mL] | MIC (M. pachydermatis; 336 h, M. pachydermatis 1892) [µg/mL] | MIC (M. pachydermatis; [6]) [µg/mL] | MIC (M. restricta) [µg/mL] | MIC (M. sympodialis; [7]) [µg/mL] | MIC (M. sympodialis; [8]) [µg/mL] | MIC (M. sympodialis; [9]) [µg/mL] | MIC (M. sympodialis; [10]) [µg/mL] | ester cleaved (M. globosa CBS 7705; [11]) [%] | ester cleaved (M. globosa CBS 7705; [12]) [%] | ester cleaved (M. restricta CBS 7877; [13]) [%] | ester cleaved (M. restricta CBS 7877; [14]) [%] | free fatty acid detected in assays without Malassezia cells [1] |
| --- | --- | --- | --- | --- | --- | --- | --- | --- | --- | --- | --- | --- | --- | --- | --- | --- | --- |
| C=CCCCCCCCCC(=O)OCCCO [3-Hydroxypropyl undecylenoate] | 8000 (≈ 33 mM) | 8000 (≈ 33 mM) | 2000 (≈ 8.25 mM) | 1000 (≈ 4.13 mM) | 2000 (≈ 8.25 mM) | 1000 (≈ 4.13 mM) | 2000 (≈ 8.25 mM) | 1000 (≈ 4.13 mM) | 2000 (≈ 8.25 mM) | 4000 (≈ 16.5 mM) | 1000 (≈ 4.13 mM) | 2000 (≈ 8.25 mM) | 95 | 99.5 | 56 | 96 | no undecylenic acid was detected |
| CCCCCCCC(=O)OCCCO [3-Hydroxypropyl caprylate] | 2000 (≈ 9.89 mM) | 2000 (≈ 9.89 mM) | 500 (≈ 2.47 mM) | 1000 (≈ 4.94 mM) | 1000 (≈ 4.94 mM) | 500 (≈ 2.47 mM) | 330 (≈ 1.63 mM) | 1000 (≈ 4.94 mM) | 1000 (≈ 4.94 mM) | 1000 (≈ 4.94 mM) | 2000 (≈ 9.89 mM) | 2000 (≈ 9.89 mM) | 75 | 90 | 21 | 65 | no caprylic acid was detected |
